Experimental data taken from PubChem BioAssay (NCI).
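The compound was tested at five concentrations on cells cultured in 96-well plates, with a 48-hour exposure period. Here, GI50 denotes the concentration required for 50% inhibition of growth. Definition used: TGI = concentration required for complete inhibition of growth.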

Legend:
Assay in all cases: growth of human tumour cells (NCI), 48 h
K-562 leukemia = test system: K-562 leukemia
HT29 colon = test system: HT29 colon
NCI-H460 lung = test system: NCI-H460 lung
MDA-MB-231 breast = test system: MDA-MB-231 breast

COc1ccc2c(c1)-c1c(c3ccccc3n1CCN1CCCCC1)CC2
TGI (K-562 leukemia): 18 µM | TGI (HT29 colon): 24.5 µM | TGI (NCI-H460 lung): 32.4 µM | TGI (MDA-MB-231 breast): 31.1 µM

C/C(=C\c1csc(C)n1)[C@@H]1C[C@@H]2O[C@]2(C)CCC[C@H](C)[C@H](O)[C@@H](C)C(=O)C(C)(C)[C@@H](O)CC(=O)O1 (tested in a mixture with another compound)
GI50 (K-562 leukemia): 0.0262 µM | TGI (K-562 leukemia): > 1 µM | GI50 (HT29 colon): 0.000721 µM | TGI (HT29 colon): > 0.378 µM | TGI (NCI-H460 lung): > 1 µM | TGI (MDA-MB-231 breast): > 0.346 µM

O=c1c2cc([N+](=O)[O-])cnc2sn1-c1ccc(Oc2ccccc2)cc1
TGI (HT29 colon): > 100 µM | TGI (NCI-H460 lung): > 100 µM | TGI (MDA-MB-231 breast): 90.7 µM

O=c1oc2ccccc2c(O)c1C(c1ccc2ccccc2c1)c1c(O)c2ccccc2oc1=O
TGI (K-562 leukemia): > 100 µM | TGI (HT29 colon): 33.8 µM | TGI (NCI-H460 lung): 73.2 µM | TGI (MDA-MB-231 breast): 47.1 µM

CSC1=N/C(=C\c2ccc(Cl)cc2)C(=O)N1CN1CCOCC1
TGI (K-562 leukemia): > 100 µM | TGI (HT29 colon): 94.4 µM | TGI (MDA-MB-231 breast): > 100 µM

[N-]=[N+]=Nc1cc(=O)n(-c2ccccc2)c(=O)n1-c1ccccc1
TGI (K-562 leukemia): > 100 µM | TGI (HT29 colon): > 100 µM | TGI (MDA-MB-231 breast): > 100 µM

COCC1OCCN1C (stereo unspecified)
TGI (K-562 leukemia): > 100 µM | TGI (HT29 colon): > 100 µM | TGI (NCI-H460 lung): > 100 µM | TGI (MDA-MB-231 breast): > 100 µM

C=C1[C@H](OCC(C)C)[C@@H](OCC(C)C)[C@@H](O)C(C)(C)/C=C/[C@H](C)C(=O)[C@@]2(O)C[C@H](C)[C@H](O)[C@@H]2[C@H]1OCC(C)C
TGI (K-562 leukemia): > 7.5 µM | TGI (NCI-H460 lung): > 7.5 µM | TGI (MDA-MB-231 breast): > 7.5 µM

Cc1cc(Cl)ccc1NC(=O)/C(CC(=O)CC(c1ccccc1)c1c(O)c2ccccc2oc1=O)=N\O (stereo unspecified)
TGI (HT29 colon): > 100 µM | TGI (NCI-H460 lung): > 100 µM | TGI (MDA-MB-231 breast): > 100 µM

COc1c(C(=O)O)cccc1-c1cccc(C(=O)NCCN(CCNC(=O)c2cccc(-c3cccc(C(=O)O)c3OC)c2OC)CCNC(=O)c2cccc(-c3cccc(C(=O)O)c3OC)c2OC)c1OC
TGI (K-562 leukemia): > 100 µM | TGI (HT29 colon): > 100 µM | TGI (NCI-H460 lung): > 100 µM | TGI (MDA-MB-231 breast): > 100 µM

O=C(/C=C/c1c(O)c2ccccc2[nH]c1=O)CC(=O)C(=O)Nc1cccc(O)c1
TGI (K-562 leukemia): > 100 µM | TGI (HT29 colon): > 100 µM | TGI (NCI-H460 lung): > 100 µM | TGI (MDA-MB-231 breast): > 100 µM

c1ccc2c(OCC3CO3)ccc(OCC3CO3)c2c1 (stereo unspecified)
TGI (K-562 leukemia): 16.8 µM | TGI (HT29 colon): 17.5 µM | TGI (NCI-H460 lung): 12.5 µM | TGI (MDA-MB-231 breast): 22.3 µM

COc1ccc(OC)c2c(=O)cc(-c3ccccc3)[nH]c12
TGI (K-562 leukemia): > 100 µM | TGI (HT29 colon): > 100 µM | TGI (NCI-H460 lung): > 100 µM | TGI (MDA-MB-231 breast): > 100 µM

O=c1[nH]c2nccn2c(Cl)c1Br
TGI (K-562 leukemia): 39.1 µM | TGI (HT29 colon): 48.8 µM | TGI (NCI-H460 lung): > 100 µM | TGI (MDA-MB-231 breast): 37.4 µM

COc1ccc(-c2cc(=O)c3c(O)c(OC)c(O)cc3o2)cc1O
TGI (K-562 leukemia): > 52.7 µM | TGI (HT29 colon): > 61.8 µM | TGI (NCI-H460 lung): 43.6 µM | TGI (MDA-MB-231 breast): > 100 µM

CCOC(=O)C(NC(=O)NCc1ccc(F)cc1)C(F)(F)F (stereo unspecified)
TGI (K-562 leukemia): > 100 µM | TGI (HT29 colon): > 100 µM

CCCN(CCC)C(=S)N/N=C/c1cccc(C)n1
TGI (K-562 leukemia): 15 µM | TGI (HT29 colon): > 100 µM | TGI (NCI-H460 lung): 0.748 µM | TGI (MDA-MB-231 breast): 2.03 µM

CC(=O)/C(=C/N1C(=O)CC(=O)NC1=S)C(=O)Nc1ccccc1C
TGI (HT29 colon): 53.5 µM | TGI (NCI-H460 lung): > 100 µM | TGI (MDA-MB-231 breast): > 100 µM

Cc1nn(-c2ccccc2)c2nc3c(c(C)nn3-c3ccccc3)c(-c3ccccc3Br)c12
TGI (K-562 leukemia): > 100 µM | TGI (HT29 colon): > 100 µM | TGI (NCI-H460 lung): > 100 µM | TGI (MDA-MB-231 breast): > 100 µM

Cc1ccc(-c2cnc(NC3OC(COC(=O)c4ccccc4)C(OC(=O)c4ccccc4)C(OC(=O)c4ccccc4)C3OC(=O)c3ccccc3)s2)cc1 (stereo unspecified)
TGI (HT29 colon): > 100 µM | TGI (NCI-H460 lung): > 100 µM | TGI (MDA-MB-231 breast): > 100 µM

CCOC(=O)C1C(C(C)C)C2(C#N)C(=N)OC1(C)C2(C#N)C#N (stereo unspecified)
TGI (K-562 leukemia): > 100 µM | TGI (HT29 colon): > 100 µM | TGI (MDA-MB-231 breast): > 100 µM

CO[C@H]1C[C@@H]2CC[C@@H](C)[C@@](O)(O2)C(=O)C(=O)N2CCCC[C@H]2C(=O)O[C@H]([C@H](C)C[C@@H]2CC[C@@H](OC(=O)C(C)(CO)CO)[C@H](OC)C2)CC(=O)[C@H](C)/C=C(\C)[C@@H](O)[C@@H](OC)C(=O)[C@H](C)C[C@H](C)/C=C/C=C/C=C/1C
TGI (K-562 leukemia): > 100 µM | GI50 (HT29 colon): 0.182 µM | TGI (HT29 colon): > 100 µM | GI50 (MDA-MB-231 breast): 2.62 µM | TGI (MDA-MB-231 breast): 31.2 µM

c1ccc2c(c1)n1c(N3CCOCC3)[n+]3ccccc3c1c1c3cccc[n+]3c(N3CCOCC3)n21
TGI (K-562 leukemia): > 100 µM | TGI (NCI-H460 lung): > 100 µM | TGI (MDA-MB-231 breast): > 100 µM

Nc1ccccc1C(=O)NNC(=O)c1ccccc1N
TGI (K-562 leukemia): > 100 µM | TGI (HT29 colon): > 100 µM | TGI (MDA-MB-231 breast): > 100 µM

COc1ccccc1NC(=S)Nc1cccc(C)n1
TGI (K-562 leukemia): > 100 µM | TGI (HT29 colon): > 100 µM | TGI (NCI-H460 lung): > 100 µM

Cn1c(=S)[nH]c2c(Cl)cc(Cl)cc2c1=O
TGI (NCI-H460 lung): > 100 µM | TGI (MDA-MB-231 breast): > 100 µM

OC1OC(c2ccc[nH]2)C(F)(F)C(F)(F)C1(F)F (stereo unspecified)
TGI (HT29 colon): > 100 µM | TGI (NCI-H460 lung): > 100 µM | TGI (MDA-MB-231 breast): > 100 µM

CC(=O)NNc1nc(C)c(C(/C=C/c2ccccc2O)=N/NC(=O)c2ccncc2)s1
TGI (HT29 colon): > 100 µM | TGI (NCI-H460 lung): > 100 µM | TGI (MDA-MB-231 breast): > 100 µM

C#CCOC(=O)C(N)CS (stereo unspecified)
TGI (K-562 leukemia): > 100 µM | TGI (HT29 colon): > 100 µM | TGI (MDA-MB-231 breast): > 100 µM
